Experimental data from patent US20260297060A1, “COMPOUNDS FOR THE DEGRADATION OF MUTANT BRAF” (C4 THERAPEUTICS, INC., priority 2023, published 2026).
Where two headings read alike, the source gives them in different places.

Tests used:
BRAF V600E = target: T1, BRAF V600E (Homo sapiens, UniProt P15056+Q96SW2, V600E); test: BRAF V600E HiBiT Degradation Assay; format: cell-based
T1 construct: knock-in of the HiBiT tag to the endogenous BRAF V600E locus; host or cells: A375.10 (A375 clonal line, CRISPR HiBiT knock-in at the endogenous BRAF V600E locus)
T1 sequence (P15056 whole entry V600E): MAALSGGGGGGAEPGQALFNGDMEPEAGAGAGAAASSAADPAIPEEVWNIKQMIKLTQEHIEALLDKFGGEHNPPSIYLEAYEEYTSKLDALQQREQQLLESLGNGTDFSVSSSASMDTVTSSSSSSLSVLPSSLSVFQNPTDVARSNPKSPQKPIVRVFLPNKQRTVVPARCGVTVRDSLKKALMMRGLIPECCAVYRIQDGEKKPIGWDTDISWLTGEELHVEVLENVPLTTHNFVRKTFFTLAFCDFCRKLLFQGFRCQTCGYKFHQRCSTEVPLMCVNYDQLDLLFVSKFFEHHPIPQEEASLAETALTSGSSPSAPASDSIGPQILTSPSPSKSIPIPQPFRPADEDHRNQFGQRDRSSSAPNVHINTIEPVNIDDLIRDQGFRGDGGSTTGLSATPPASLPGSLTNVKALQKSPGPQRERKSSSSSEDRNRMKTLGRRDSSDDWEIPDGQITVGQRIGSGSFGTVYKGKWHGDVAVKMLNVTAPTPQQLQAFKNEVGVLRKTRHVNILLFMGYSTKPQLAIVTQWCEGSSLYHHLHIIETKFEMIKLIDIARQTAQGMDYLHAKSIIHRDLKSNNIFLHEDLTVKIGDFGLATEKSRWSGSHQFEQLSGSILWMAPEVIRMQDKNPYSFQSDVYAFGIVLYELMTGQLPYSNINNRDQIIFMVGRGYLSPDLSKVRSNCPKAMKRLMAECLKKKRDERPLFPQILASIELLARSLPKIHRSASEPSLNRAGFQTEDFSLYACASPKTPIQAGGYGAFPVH
T1 sequence (Q96SW2 whole entry): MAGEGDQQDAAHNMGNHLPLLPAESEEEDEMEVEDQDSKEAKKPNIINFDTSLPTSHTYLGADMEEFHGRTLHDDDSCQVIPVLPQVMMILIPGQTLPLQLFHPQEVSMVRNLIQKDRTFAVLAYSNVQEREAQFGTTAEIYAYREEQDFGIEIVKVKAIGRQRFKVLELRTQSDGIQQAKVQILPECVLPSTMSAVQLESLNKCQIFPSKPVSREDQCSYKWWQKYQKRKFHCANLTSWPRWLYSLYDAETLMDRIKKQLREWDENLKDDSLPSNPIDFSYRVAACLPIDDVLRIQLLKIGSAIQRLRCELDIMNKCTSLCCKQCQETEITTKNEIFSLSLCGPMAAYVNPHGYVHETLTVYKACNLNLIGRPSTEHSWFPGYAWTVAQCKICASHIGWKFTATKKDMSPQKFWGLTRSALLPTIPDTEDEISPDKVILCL
T1 sequence (Q16531 whole entry partner): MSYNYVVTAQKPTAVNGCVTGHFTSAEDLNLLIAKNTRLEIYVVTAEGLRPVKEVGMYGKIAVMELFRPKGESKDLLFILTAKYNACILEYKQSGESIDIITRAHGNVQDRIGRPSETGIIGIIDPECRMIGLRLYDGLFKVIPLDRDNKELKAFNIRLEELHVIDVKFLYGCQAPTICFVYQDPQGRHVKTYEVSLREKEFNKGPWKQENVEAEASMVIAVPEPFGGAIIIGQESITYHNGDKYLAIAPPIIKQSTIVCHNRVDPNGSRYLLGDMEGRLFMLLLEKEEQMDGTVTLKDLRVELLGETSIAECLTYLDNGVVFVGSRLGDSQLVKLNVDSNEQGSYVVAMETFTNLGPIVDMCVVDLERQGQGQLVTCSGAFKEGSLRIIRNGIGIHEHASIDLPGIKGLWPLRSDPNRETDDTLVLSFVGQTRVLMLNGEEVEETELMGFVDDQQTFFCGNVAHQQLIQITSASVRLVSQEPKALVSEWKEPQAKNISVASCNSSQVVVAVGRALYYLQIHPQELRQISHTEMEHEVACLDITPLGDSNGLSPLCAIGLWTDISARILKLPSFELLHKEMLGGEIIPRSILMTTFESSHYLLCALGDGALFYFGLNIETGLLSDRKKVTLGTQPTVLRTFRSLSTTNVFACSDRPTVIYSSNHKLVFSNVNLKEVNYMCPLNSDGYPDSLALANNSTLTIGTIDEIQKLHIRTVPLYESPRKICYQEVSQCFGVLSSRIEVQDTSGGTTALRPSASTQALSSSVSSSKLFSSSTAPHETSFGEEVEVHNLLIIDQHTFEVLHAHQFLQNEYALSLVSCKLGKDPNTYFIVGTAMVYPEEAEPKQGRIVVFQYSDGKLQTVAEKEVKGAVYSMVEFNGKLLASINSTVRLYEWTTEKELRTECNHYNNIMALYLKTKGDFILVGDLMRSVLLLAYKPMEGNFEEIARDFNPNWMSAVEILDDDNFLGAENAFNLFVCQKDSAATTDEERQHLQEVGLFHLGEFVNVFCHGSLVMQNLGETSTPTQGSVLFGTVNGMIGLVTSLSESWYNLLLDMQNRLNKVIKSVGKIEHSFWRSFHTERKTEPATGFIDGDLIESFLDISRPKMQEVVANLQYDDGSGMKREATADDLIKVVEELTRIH
Procedure: Compounds of this invention were tested for degradation of mutant BRAF V600E using the HiBiT assay, a luminescence-based assay for quantification of cellular protein levels using the Nano-Glo® HiBiT Lytic Detection System (Catalog No. N3050, Promega, Madison, WI USA). This assay utilizes the HiBiT tag on a protein of interest, which creates a luminescent signal in the presence of a complementing peptide and its substrate, the quantification of which is proportional to the amount of HiBiT-tagged protein in the cell.
The cell line A375, which is homozygous for the BRAF V600E mutation, was purchased from ATCC (Catalog No. CRL-1619, Manassas, VA, USA). A375 cells were engineered to express HiBiT tagged BRAF V600E by CRISPR knock-in of the HiBiT tag to the endogenous BRAF V600E locus, followed by selection of a clonal population containing the appropriate knock-in (referred to here as cell line A375.10). A375.10 cells were maintained at 37° C. in an atmosphere of 5% CO2 in Dulbecco's modified Eagle Medium (DMEM) with high glucose (Catalog No. 11965092), supplemented with 10% fetal bovine serum (FBS; Catalog No. 10437036), and 10 mM HEPES (Catalog No. 15630130), all obtained from Thermofisher Scientific (Waltham, MA, USA). Cell culture flasks and 384-well microplates were acquired from VWR (Radnor, PA, USA).
Test compounds were prepared by dissolving neat compounds in DMSO (Catalog No. D8418, Sigma-Aldrich, Inc., St. Louis, MO, USA) to generate 10 mM stock solutions, which were serially diluted (half log) in DMSO to generate an 11-point dose series (1000× final treatment concentration) in a 384-Well Low Dead Volume Microplate (Catalog No. LP-0200, Labcyte, San Jose, CA, USA). Using the Echo 550 Acoustic Liquid Handler (Labcyte), 30 nL of serially diluted compound solutions were dispensed in duplicate to 384-well TC-treated microplates (Catalog No. 3571, Corning, Glendale, CA, USA) and 30 nL of DMSO was dispensed to control wells. A375.10 cells resuspended in growth media without phenol red (Catalog No. 21063-029, Thermofisher Scientific) were then added to 384-well plates containing the 11-point dose series of compounds in duplicate (maximum 10 μM concentration for final treatment) at a density of 12,000 cells/well in 30 μl. Plates were then spun briefly, and cells were incubated with compound at 37° C. for 2 hours, 6 hours, or 24 hours.
Following the appropriate treatment time, Nano-Glo® HiBiT Lytic Assay reagents were added to the cells per the manufacturer's instructions by adding 30 μl of reagent per well, and the luminescence signal was acquired by plate reader. Cells treated with DMSO only (no test compound treatment) were used as the negative control (N). Media only (no cells added) with Nano-Glo reagent addition was used as the background or positive control (P). The percent response of compound treated samples were calculated by subtracting out the background signal (P) and normalizing to the DMSO control (N) as follows.
% Response=100×(Treated Signal−Average (P))/(Average (N)−Average (P)).
Data were analyzed with a 4-parameter logistic fit to generate sigmoidal dose-response curves. The DC50 is the concentration of compound at which 50% of the cellular BRAF V600E has been degraded. The Emax, or maximum effect of each compound, represents the amount of residual protein remaining in the cell following compound treatment. The IP, or inflection point of the dose-response curve, is the concentration of compound at which 50% of the observed degradation response is achieved.
The experiment was conducted at least once for each compound. If the experiment was conducted multiple times, the data shown in the table is the average of the two or more experiments.

A375-NRAS^Q61K cells = test: CTGlo Cell Viability Assay, A375-NRAS^Q61K (A375.11) cells, 96 hours; format: cell-based, human; details: A375.11 (A375-NRAS^Q61K) cells
Procedure: Compounds of this invention were tested for their effect on the viability of A375-NRAS^Q61K cells by quantification of ATP using the CellTiter-Glo® 2.0 Cell Viability Assay (Catalog No. G9243, Promega, Madison, WI, USA). This assay produces a luminescent signal in the presence of ATP, which is indicative of metabolically active cells, making the luminescence readout proportional to the number of viable cells.
A375-NRAS^Q61K cells (harboring BRAF homozygous V600E mutation and NRAS homozygous Q61K mutation) were purchased from ATCC (Catalog No. CRL-1619IG-2, Manassas, VA, USA). A375-NRAS^Q61K cells (also referred to here as A375.11) were maintained at 37° C. in an atmosphere of 5% CO2 in Dulbecco's modified Eagle Medium (DMEM) with high glucose (Catalog No. 11965092), supplemented with 10% fetal bovine serum (FBS; Catalog No. 10437036), and 10 mM HEPES (Catalog No. 15630130), all obtained from Thermofisher Scientific (Waltham, MA, USA). Cell culture flasks and 384-well microplates were acquired from VWR (Radnor, PA, USA).
Test compounds were prepared by dissolving neat compounds in DMSO (Catalog No. D8418, Sigma-Aldrich, Inc., St. Louis, MO, USA) to generate 10 mM stock solutions, which were serially diluted (half log) in DMSO to generate an 11-point dose series (1000× final treatment concentration) in a 384-Well Low Dead Volume Microplate (Catalog No. LP-0200, Labcyte, San Jose, CA, USA). Using the Echo 550 Acoustic Liquid Handler (Labcyte), 50 nL of serially diluted compound solutions were dispensed in duplicate to 384-well TC-treated microplates (Catalog No. 3571, Corning, Glendale, CA, USA) and 50 nL of DMSO was dispensed to control wells. A375-NRAS^Q61K cells were resuspended in growth media and added to 384-well plates containing a […] of compounds in duplicate (maximum 10 μM concentration for final treatment) at a density of 250 cells/well in 50 μl. Cells were also plated to a 384-well plate with no compound treatment, to which CellTiter-Glo® reagent was added and luminescence was read right after plating to act as a baseline signal at time of plating (To). Plates treated with compound were then spun briefly, and cells were incubated with compound at 37° C. for 96 hours.
After 96 hours compound treatment, CellTiter-Glo® reagent was added to the cells at 25 μl per well and luminescence was read out on the PHERAstar plate reader (BMG Labtech, Ortenberg, Germany). Cells treated with DMSO only (no test compound treatment) were used as the negative control (N). DMSO treated cells with no CellTiter-Glo® reagent added were used as the background or positive control (P). Viability was determined by subtracting out the average background signal (P) and normalized to the average untreated signal (N) set at 100%.
Data were analyzed with a 4-parameter logistic fit to generate sigmoidal dose-response curves. The half-maximal inhibition of cell growth (GI50) is the concentration at which the fitted curve crosses 50%. The Emax, or maximum effect of each compound, represents the lowest % viability achieved following compound treatment.

[1] = A375.10 cells, BRAF V600E, 2 hours, inflection point, read-out: HiBiT-Degradation A375.10 BRAF 2 hours IP
[2] = A375.10 cells, BRAF V600E, 2 hours, read-out: HiBiT-Degradation A375.10 BRAF 2 hours DC50
[3] = A375.10 cells, BRAF V600E, 6 hours, inflection point, read-out: HiBiT-Degradation A375.10 BRAF 6 hours IP
[4] = A375.10 cells, BRAF V600E, 6 hours, read-out: HiBiT-Degradation A375.10 BRAF 6 hours DC50
[5] = A375.10 cells, BRAF V600E, 6 hours, residual protein remaining
[6] = A375.10 cells, HiBiT, BRAF V600E, 24 hours
[7] = A375.10 cells, HiBiT, BRAF V600E, 24 hours, read-out: HiBiT-Degradation A375.10 BRAF 24 hours DC50
[8] = A375.10 cells, HiBiT, BRAF V600E, 24 hours, read-out: HiBiT-Degradation A375.10 BRAF 24 hours IP
[9] = A375.10 cells, BRAF V600E, 2 hours, residual protein remaining

Structure (SMILES)	HiBiT-Degradation A375.10 BRAF 2 hours Emax (BRAF V600E)	DC50 (BRAF V600E; [1])	DC50 (BRAF V600E; [2])	DC50 (BRAF V600E; [3])	DC50 (BRAF V600E; [4])	HiBiT-Degradation A375.10 BRAF 6 hours Emax (BRAF V600E; [5])	HiBiT-Degradation A375.10 BRAF 24 hours Emax (BRAF V600E; [6])	DC50 (BRAF V600E; [7])	DC50 (BRAF V600E; [8])	GI50 (A375-NRAS^Q61K cells)	CTGlo A375.11 96 hours Emax (A375-NRAS^Q61K cells; lowest % viability achieved)	HiBiT-Degradation A375.10 BRAF 2 hours Emax (BRAF V600E; [9])	Emax (BRAF V600E; A375.10 cells, BRAF V600E, 2 hours, residual protein remaining, read-out: HiBiT-Degradation A375.10 BRAF 2 hours Emax)	Emax (A375-NRAS^Q61K cells; Homo sapiens, 96 h, lowest % viability achieved)	Emax (BRAF V600E; A375.10 cells, BRAF V600E, 6 hours, residual protein remaining, read-out: HiBiT-Degradation A375.10 BRAF 6 hours Emax)	Emax (BRAF V600E; A375.10 cells, HiBiT, BRAF V600E, 24 hours, read-out: HiBiT-Degradation A375.10 BRAF 24 hours Emax)
CCN(C)S(=O)(=O)Nc1ccc(F)c(Oc2ccc3ncn([C@@H]4COC5(CCN(C6CCC(c7cc8c(cc7F)c(N7CCC(=O)NC7=O)nn8C)CC6)CC5)C4)c(=O)c3c2F)c1C#N (single isomer, unassigned) [Compound 47]	*** (<=50%)	< 1000 nM	< 1000 nM	< 1000 nM	< 1000 nM	*** (<=50%)	*** (<=50%)	< 1000 nM	< 1000 nM	1000 to 10000 nM	** (<90% and >50%)	–	–	–	–	–
CCN(C)S(=O)(=O)Nc1ccc(F)c(Oc2ccc3ncn([C@H]4COC5(CCN(C6CCC(c7ccc(NC8CCC(=O)NC8=O)cc7F)CC6)CC5)C4)c(=O)c3c2F)c1C#N (single isomer, unassigned) [Compound 51]	–	< 1000 nM	< 1000 nM	–	–	–	–	–	–	1000 to 10000 nM	*** (<=50%)	** (<90% and >50%)	–	–	–	–
CCN(C)S(=O)(=O)Nc1ccc(F)c(Oc2ccc3ncn([C@@H]4COC5(CCN(C6CCC(c7ccc(NC8CCC(=O)NC8=O)cc7F)CC6)CC5)C4)c(=O)c3c2F)c1C#N (single isomer, unassigned) [Compound 53]	–	< 1000 nM	< 1000 nM	–	–	–	–	–	–	1000 to 10000 nM	** (<90% and >50%)	*** (<=50%)	–	–	–	–
CCN(C)S(=O)(=O)Nc1ccc(F)c(Nc2ccc3ncn([C@H]4COC5(CCN(C6CCC(c7ccc(NC8CCC(=O)NC8=O)cc7F)CC6)CC5)C4)c(=O)c3c2)c1C#N (single isomer, unassigned) [Compound 56]	–	< 1000 nM	< 1000 nM	–	–	–	–	–	–	> 10000 nM	–	–	< 50%	50 to 90%	–	–
CCN(C)S(=O)(=O)Nc1ccc(F)c(Nc2ccc3ncn([C@H]4COC5(CCN(C6CCC(c7ccc(NC8CCC(=O)NC8=O)cc7F)CC6)CC5)C4)c(=O)c3c2)c1C#N (single isomer, unassigned) [Compound 57]	–	< 1000 nM	< 1000 nM	< 1000 nM	< 1000 nM	–	–	< 1000 nM	< 1000 nM	1000 to 10000 nM	** (<90% and >50%)	*** (<=50%)	–	–	< 50%	< 50%
CCN(C)S(=O)(=O)Nc1ccc(F)c(Oc2ccc3ncc([C@H]4COC5(CCN(C6CCC(c7ccc(NC8CCC(=O)NC8=O)cc7F)CC6)CC5)C4)nc3c2)c1C#N (single isomer, unassigned) [Compound 59]	** (<90% and >50%)	< 1000 nM	< 1000 nM	–	–	–	–	–	–	1000 to 10000 nM	** (<90% and >50%)	–	–	–	–	–
CCN(C)S(=O)(=O)Nc1ccc(F)c(Oc2ccc3ncc([C@@H]4COC5(CCN(C6CCC(c7ccc(NC8CCC(=O)NC8=O)cc7F)CC6)CC5)C4)nc3c2)c1C#N (single isomer, unassigned) [Compound 61]	** (<90% and >50%)	< 1000 nM	1000 to 10000 nM	–	–	–	–	–	–	> 10000 nM	** (<90% and >50%)	–	–	–	–	–
CCN(C)S(=O)(=O)Nc1ccc(F)c(Oc2ccc3ncn([C@H]4COC5(CCN(C6CC(c7ccc(NC8CCC(=O)NC8=O)cc7F)C6)CC5)C4)c(=O)c3c2)c1C#N (single isomer, unassigned) [Compound 63]	–	< 1000 nM	< 1000 nM	< 1000 nM	< 1000 nM	*** (<=50%)	*** (<=50%)	< 1000 nM	< 1000 nM	< 1000 nM	*** (<=50%)	*** (<=50%)	–	–	–	–
